According to the supplement of paper PMC10627819:

Key:
Assay in all cases: fitness (endpoint OD595 vs no drug) (fraction); higher = more growth
S. pneumoniae D39V = system: S. pneumoniae D39V
In short: (§1)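 Fitness compares growth at the stationary-phase transition with the robust mean of no-drug control wells, as a ratio of optical densities. The ratio is capped at 1. Wells of 384-well plates held 30 µl, or 55 µl for S. pneumoniae, inoculated at OD595 0.01. Readings at OD595 every 30 min for 14 h at 37 °C were corrected against the first reading.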

B. subtilis 168 = system: B. subtilis 168
In short: as §1

S. aureus DSM 20231 = system: S. aureus DSM 20231
In short: as §1

S. aureus Newman = system: S. aureus Newman
In short: as §1
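Further: OD595 on entry to stationary phase over no-drug wells; at most 1.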

CN(C)[C@@H]1C(O)=C(C(N)=O)C(=O)[C@@]2(O)C(O)=C3C(=O)c4c(O)ccc(Cl)c4[C@@](C)(O)[C@H]3C[C@@H]12 [Chlortetracycline] + CO/N=C(\C(=O)N[C@@H]1C(=O)N2C(C(=O)O)=C(COC(C)=O)CS[C@H]12)c1csc(N)n1 [Cefotaxime]
Conditions | fitness
B. subtilis 168, first compound 0.0475 µg/mL, partner 0.5 µg/mL | 0.326
B. subtilis 168, first compound 0.0475 µg/mL, partner 1 µg/mL | 0.19
B. subtilis 168, first compound 0.0475 µg/mL, partner 2 µg/mL | 0.147
B. subtilis 168, first compound 0.095 µg/mL, partner 0.5 µg/mL | 0.199
B. subtilis 168, first compound 0.095 µg/mL, partner 1 µg/mL | 0.0513
B. subtilis 168, first compound 0.095 µg/mL, partner 2 µg/mL | 0.117
B. subtilis 168, first compound 0.19 µg/mL, partner 0.5 µg/mL | 0.129
B. subtilis 168, first compound 0.19 µg/mL, partner 1 µg/mL | 0.0806
B. subtilis 168, first compound 0.19 µg/mL, partner 2 µg/mL | 0.111
S. aureus DSM 20231, first compound 0.012 µg/mL, partner 0.039 µg/mL | 0.533
S. aureus DSM 20231, first compound 0.012 µg/mL, partner 0.078 µg/mL | 0.608
S. aureus DSM 20231, first compound 0.012 µg/mL, partner 0.156 µg/mL | 0.561
S. aureus DSM 20231, first compound 0.012 µg/mL, partner 0.312 µg/mL | 0.44
S. aureus DSM 20231, first compound 0.024 µg/mL, partner 0.312 µg/mL | 0.271
S. aureus DSM 20231, first compound 0.048 µg/mL, partner 0.039 µg/mL | 0.258
S. aureus DSM 20231, first compound 0.048 µg/mL, partner 0.078 µg/mL | 0.137
S. aureus DSM 20231, first compound 0.048 µg/mL, partner 0.156 µg/mL | 0.125
S. aureus DSM 20231, first compound 0.048 µg/mL, partner 0.312 µg/mL | 0.108
S. pneumoniae D39V, first compound 0.012 µg/mL, partner 0.0018 µg/mL | 0.88
S. pneumoniae D39V, first compound 0.012 µg/mL, partner 0.0035 µg/mL | 0.94
S. pneumoniae D39V, first compound 0.012 µg/mL, partner 0.007 µg/mL | 0.885
S. pneumoniae D39V, first compound 0.024 µg/mL, partner 0.0018 µg/mL | 0.664
S. pneumoniae D39V, first compound 0.024 µg/mL, partner 0.0035 µg/mL | 0.641
S. pneumoniae D39V, first compound 0.024 µg/mL, partner 0.007 µg/mL | 0.629
S. pneumoniae D39V, first compound 0.048 µg/mL, partner 0.0018 µg/mL | 0.301
S. pneumoniae D39V, first compound 0.048 µg/mL, partner 0.0035 µg/mL | 0.251
S. pneumoniae D39V, first compound 0.048 µg/mL, partner 0.007 µg/mL | 0.238
S. pneumoniae D39V, first compound 0.375 µg/mL, partner 0.0018 µg/mL | 0.0683
S. pneumoniae D39V, first compound 0.375 µg/mL, partner 0.0035 µg/mL | 0.0612
S. pneumoniae D39V, first compound 0.375 µg/mL, partner 0.007 µg/mL | 0.0585
S. pneumoniae D39V, first compound 0.75 µg/mL, partner 0.0018 µg/mL | 0.086
S. pneumoniae D39V, first compound 0.75 µg/mL, partner 0.0035 µg/mL | 0.0734
S. pneumoniae D39V, first compound 0.75 µg/mL, partner 0.007 µg/mL | 0.0886
S. pneumoniae D39V, first compound 1.5 µg/mL, partner 0.0018 µg/mL | 0.0498
S. pneumoniae D39V, first compound 1.5 µg/mL, partner 0.0035 µg/mL | 0.0657
S. pneumoniae D39V, first compound 1.5 µg/mL, partner 0.007 µg/mL | 0.0651

fitness, one replicate
Conditions | partner 0.00775 µg/mL | partner 0.0155 µg/mL | partner 0.031 µg/mL | partner 0.039 µg/mL | partner 0.0625 µg/mL | partner 0.078 µg/mL | partner 0.125 µg/mL | partner 0.156 µg/mL | partner 0.25 µg/mL | partner 0.312 µg/mL
B. subtilis 168, first compound 0.0475 µg/mL | 0.783 | 0.597 | 0.5 | – | 0.532 | – | 0.381 | – | 0.326 | –
B. subtilis 168, first compound 0.095 µg/mL | 0.703 | 0.536 | 0.38 | – | 0.458 | – | 0.283 | – | 0.186 | –
B. subtilis 168, first compound 0.19 µg/mL | 0.413 | 0.149 | 0.0377 | – | 0.135 | – | 0.0644 | – | 0.06 | –
S. aureus DSM 20231, first compound 0.006 µg/mL | – | – | – | 0.775 | – | 0.689 | – | 0.677 | – | 0.635

CN(C)[C@@H]1C(O)=C(C(N)=O)C(=O)[C@@]2(O)C(O)=C3C(=O)c4c(O)ccc(Cl)c4[C@@](C)(O)[C@H]3C[C@@H]12 [Chlortetracycline] + Cc1cc(NS(=O)(=O)c2ccc(N)cc2)no1 [Sulfamethoxazol]
fitness, one replicate
Conditions | partner 0.5 µg/mL | partner 1 µg/mL | partner 2 µg/mL | partner 4 µg/mL
B. subtilis 168, first compound 0.0475 µg/mL | 0.905 | – | – | –
B. subtilis 168, first compound 0.095 µg/mL | 0.837 | – | – | –
B. subtilis 168, first compound 0.19 µg/mL | 0.449 | – | – | –
S. aureus DSM 20231, first compound 0.006 µg/mL | – | 0.724 | 0.733 | 0.761
S. pneumoniae D39V, first compound 0.012 µg/mL | – | 0.929 | 0.951 | 0.865
S. pneumoniae D39V, first compound 0.024 µg/mL | – | 0.851 | 0.88 | 0.806
S. pneumoniae D39V, first compound 0.048 µg/mL | – | 0.793 | 0.797 | 0.743

fitness
Conditions | partner 1 µg/mL | partner 2 µg/mL | partner 4 µg/mL
B. subtilis 168, first compound 0.0475 µg/mL | 0.9 | 0.852 | 0.907
B. subtilis 168, first compound 0.095 µg/mL | 0.78 | 0.725 | 0.779
B. subtilis 168, first compound 0.19 µg/mL | 0.548 | 0.527 | 0.5
S. aureus DSM 20231, first compound 0.012 µg/mL | 0.509 | 0.533 | 0.573
S. aureus DSM 20231, first compound 0.024 µg/mL | 0.256 | 0.234 | 0.264
S. aureus DSM 20231, first compound 0.048 µg/mL | 0.0878 | 0.0579 | 0.059
S. pneumoniae D39V, first compound 0.375 µg/mL | 0.0312 | 0.0347 | 0.0394
S. pneumoniae D39V, first compound 0.75 µg/mL | 0.0329 | 0.0284 | 0.0259
S. pneumoniae D39V, first compound 1.5 µg/mL | 0.0307 | 0.0374 | 0.0403

COc1cccc2c1C(=O)c1c(O)c3c(c(O)c1C2=O)C[C@@](O)(C(=O)CO)C[C@@H]3O[C@H]1C[C@H](N)[C@H](O)[C@H](C)O1 [Doxorubicin] + CO/N=C(\C(=O)N[C@@H]1C(=O)N2C(C(=O)[O-])=C(C[N+]3(C)CCCC3)CS[C@H]12)c1csc(N)n1 [Cefepime]
fitness
Conditions | first compound 0.25 µg/mL | first compound 0.5 µg/mL | first compound 0.625 µg/mL | first compound 1 µg/mL | first compound 1.25 µg/mL | first compound 2.5 µg/mL
S. aureus DSM 20231, partner 0.125 µg/mL | – | – | 0.861 | – | 0.828 | 0.721
S. aureus DSM 20231, partner 0.25 µg/mL | – | – | 0.826 | – | 0.814 | 0.656
S. aureus DSM 20231, partner 0.5 µg/mL | – | – | 0.741 | – | 0.71 | 0.62
S. aureus Newman, partner 0.125 µg/mL | – | – | 0.783 | – | 0.773 | 0.716
S. aureus Newman, partner 0.25 µg/mL | – | – | 0.762 | – | 0.744 | 0.696
S. aureus Newman, partner 0.5 µg/mL | – | – | 0.659 | – | 0.732 | 0.683
S. pneumoniae D39V, partner 0.007 µg/mL | 0.937 | 0.949 | – | 0.957 | – | –
S. pneumoniae D39V, partner 0.0078 µg/mL | ≥ 1 | ≥ 1 | – | 0.938 | – | –
S. pneumoniae D39V, partner 0.014 µg/mL | 0.912 | 0.935 | – | 0.942 | – | –
S. pneumoniae D39V, partner 0.0155 µg/mL | 0.974 | 0.994 | – | 0.917 | – | –
S. pneumoniae D39V, partner 0.028 µg/mL | 0.783 | 0.846 | – | 0.825 | – | –
